ChEMBL document CHEMBL5360520, “Catalytic covalent inhibition of cyclooxygenase-1 by a biomimetic acyltransferase” (Bioorg Med Chem, 2022)
Activity calls are given as the source filed them. No cut-off for these calls is given here.

How the values were obtained:
[1] = molecular target: Prostaglandin G/H synthase 1 (Homo sapiens) (UniProt P23219); test: Covalent inhibition of COX1 in LPS-treated human A549 cells using arachidonic acid as substrate assessed as reduction in PGE2 production at 40 uM preincubated with compound for 12 hrs followed by washout and measured after 20 mins of substrate addition by LC-MS/MS analysis
[2] = molecular target: T1, Prostaglandin G/H synthase 1 (Ovis aries) (UniProt P05979); test: Covalent inhibition of recombinant ovine COX1 using arachidonic acid as substrate assessed as reduction in PGE2 production at 40 uM preincubated with compound for […] followed by substrate addition and measured after 10 mins in the presence of AcSNAC by LC-MS/MS analysis; conditions: time 370.0 min
T1 sequence (whole entry): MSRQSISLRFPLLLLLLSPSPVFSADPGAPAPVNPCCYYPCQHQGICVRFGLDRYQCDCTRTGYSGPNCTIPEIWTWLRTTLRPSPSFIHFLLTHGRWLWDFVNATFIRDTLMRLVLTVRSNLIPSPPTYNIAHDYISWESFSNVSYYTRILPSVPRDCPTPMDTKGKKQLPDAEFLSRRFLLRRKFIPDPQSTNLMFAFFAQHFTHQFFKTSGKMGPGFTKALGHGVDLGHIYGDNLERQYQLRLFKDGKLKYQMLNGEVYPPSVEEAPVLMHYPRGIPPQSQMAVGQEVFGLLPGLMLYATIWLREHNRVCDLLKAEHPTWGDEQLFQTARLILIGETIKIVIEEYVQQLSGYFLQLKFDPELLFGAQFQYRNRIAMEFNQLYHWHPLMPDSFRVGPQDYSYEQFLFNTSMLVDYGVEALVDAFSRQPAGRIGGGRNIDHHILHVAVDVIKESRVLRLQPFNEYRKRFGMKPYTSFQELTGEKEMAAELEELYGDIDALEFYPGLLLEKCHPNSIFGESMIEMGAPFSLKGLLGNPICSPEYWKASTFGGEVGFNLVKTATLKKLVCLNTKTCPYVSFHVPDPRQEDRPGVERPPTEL

[3] = molecular target: Prostaglandin G/H synthase 1 (Homo sapiens) (UniProt P23219); test: Covalent inhibition of COX1 in LPS-treated human A549 cells using arachidonic acid as substrate assessed as reduction in PGE2 production at 15 uM preincubated with compound for 24 hrs followed by washout and measured after 20 mins of substrate addition by LC-MS/MS analysis
[4] = molecular target: T1, Prostaglandin G/H synthase 1 (Ovis aries); test: Covalent inhibition of recombinant ovine COX1 using arachidonic acid as substrate assessed as reduction in PGE2 production at 10 uM preincubated with compound for 16 hrs followed by substrate addition for 10 mins in the presence of AcSNAC and measured after 16 hrs of dialysis by LC-MS/MS analysis; conditions: time 970.0 min
[5] = tested on: A549; test: Cytotoxicity against human A549 cells assessed as reduction in cell viability at 15 uM by MTT assay; format: toxicity, cell-based; conditions: a549, 15 µM
[6] = molecular target: T2, Prostaglandin G/H synthase 1 (Ovis aries, UniProt P05979); test: Covalent inhibition of recombinant ovine COX-1 using arachidonic acid as substrate assessed as reduction in PGE2 production preincubated with compound for 1 hrs followed by substrate addition and measured after 10 mins by LC-MS/MS analysis
T2 sequence (P05979 whole entry): T1 sequence (whole entry)

[7] = molecular target: T1, Prostaglandin G/H synthase 1 (Ovis aries); test: Covalent inhibition of recombinant ovine COX1 using arachidonic acid as substrate assessed as acetylation at Ser530 residues preincubated with compound followed by substrate addition and measured after 10 mins by LC-MS/MS analysis
[8] = molecular target: Prostaglandin G/H synthase 1 (Homo sapiens) (UniProt P23219); test: Covalent inhibition of COX1 in LPS-treated human A549 cells using arachidonic acid as substrate assessed as reduction in PGE2 production at 40 uM measured every 24 hrs by LC-MS/MS analysis; conditions: time <= 48.0 hrs, TDE = time-dependent effect
[9] = molecular target: T2, Prostaglandin G/H synthase 1; test: Covalent inhibition of recombinant ovine COX-1 using arachidonic acid as substrate assessed as reduction in PGE2 production preincubated with compound for 5 hrs followed by substrate addition and measured after 10 mins by LC-MS/MS analysis
[10] = molecular target: T1, Prostaglandin G/H synthase 1 (Ovis aries); test: Covalent inhibition of recombinant ovine COX1 using arachidonic acid as substrate assessed as inhibition rate preincubated with compound for 10 to 40 mins followed by substrate addition and measured after 10 mins by LC-MS/MS analysis; conditions: time 20-50 min
[11] = molecular target: T1, Prostaglandin G/H synthase 1 (Ovis aries); test: Inhibition of recombinant ovine COX1 using arachidonic acid as substrate assessed as Kinact/Ki ratio preincubated with compound for 10 to 40 mins followed by substrate addition and measured after 10 mins by LC-MS/MS analysis; conditions: time 20-50 min
[12] = molecular target: T2, Prostaglandin G/H synthase 1; test: Non-covalent binding affinity to recombinant ovine COX1 using arachidonic acid as substrate assessed as binding constant preincubated with compound for 10 to 40 mins followed by substrate addition and measured after 10 mins by LC-MS/MS analysis
[13] = molecular target: T1, Prostaglandin G/H synthase 1 (Ovis aries); test: Covalent inhibition of recombinant ovine COX-1 using arachidonic acid as substrate assessed as reduction in PGE2 production preincubated with compound followed by substrate addition and measured after 10 mins by LC-MS/MS analysis; conditions: time 70-310 min, TDE = time-dependent effect
[14] = molecular target: T1, Prostaglandin G/H synthase 1 (Ovis aries); test: Covalent inhibition of recombinant ovine COX1 using arachidonic acid as substrate assessed as residual activity preincubated with compound for 6 hrs followed by substrate addition for 10 mins and measured after 8 hrs of dialysis by LC-MS/MS analysis relative to control; conditions: time 370.0 min
[15] = molecular target: T1, Prostaglandin G/H synthase 1 (Ovis aries); test: Covalent inhibition of recombinant ovine COX1 using arachidonic acid as substrate assessed as reduction in PGE2 production preincubated with compound followed by substrate addition and measured after 10 mins by LC-MS/MS analysis relative to control
[16] = molecular target: T1, Prostaglandin G/H synthase 1 (Ovis aries); test: Covalent inhibition of recombinant ovine COX1 using arachidonic acid as substrate assessed as reduction in PGE2 production preincubated with compound for 6 hrs followed by substrate addition for 10 mins and measured after 8 hrs of dialysis by LC-MS/MS analysis; conditions: time 370.0 min

Row | SMILES | Kinact [10] | Ratio [11] | Ki [12] [µM] | inhibition [13] | Activity [5] | other results
1 | CCCCCCNC(=O)c1ccccc1S | – | – | – | – | – | inhibition [1]: Active; inhibition [2]: Active
2 | CCCCC#CCNC(=O)c1ccccc1S | – | – | – | – | Non-Toxic | inhibition [3]: 60%; inhibition [4]: Active
3 | CCCCCCNC(=O)c1ccccc1SC(C)=O | 2.1 10^-2/min | 0.65 10^-3/min/µM | 33.9 | – | – | IC50 [6]: 50 µM; inhibition [7]: Active; inhibition [8]: Tde; IC50 [9]: 10 µM; inhibition [1]: Active
4 | CC(=O)Oc1ccccc1C(=O)O [ASPIRIN] | – | – | – | Tde | Non-Toxic | –
5 | CCCCC#CCNC(=O)c1ccccc1SC | – | – | – | – | – | Activity [14]: 83%; inhibition [15]: 97%

Now from value to compound, other results behind:

Row | Kinact [10] | Ratio [11] | Ki [12] [µM] | inhibition [13] | SMILES | Activity [5] | other results
6 | 2.2 10^-2/min | 2.58 10^-3/min/µM | 8.9 | Tde | CCCCC#CCNC(=O)c1ccccc1SC(C)=O | Non-Toxic | inhibition [16]: Active; inhibition [7]: Active
7 | 2.5 10^-2/min | 2.4 10^-3/min/µM | 15.2 | Tde | C#CCNC(=O)c1ccccc1SC(C)=O | – | –
